Test results as given in patent EP3965790B1, “PENTACYCLIC TRITERPENES IN THE TREATMENT OF VITILIGO” (Pierre Fabre Dermo-Cosmétique, priority 2019, dated 2020).

Experiments:
CXCL10 = test: RT-qPCR gene expression in cytokine-stimulated keratinocytes; format: cell-based, humains; settings: stimulated keratinocytes, 24 h
CCL20 = test: as above; format: cell-based, humains; settings: stimulated keratinocytes, 24 h
CCL5 = test: as above; format: cell-based, humains; settings: stimulated keratinocytes, 24 h
IL-23A = test: as above; format: cell-based, humains; settings: stimulated keratinocytes, 24 h
MMP-9 [1] = test: as above; format: cell-based, humains; settings: stimulated keratinocytes, 24 h
MMP-9 [2] = test: ELISA of MMP-9 release by cytokine-stimulated keratinocytes; format: cell-based, humains
IL-8 [3] = test: ELISA of IL-8 release by cytokine-stimulated keratinocytes; format: cell-based, humains
IL-8 [4] = test: RT-qPCR gene expression in cytokine-stimulated keratinocytes; format: cell-based, humains; settings: stimulated keratinocytes, 24 h
S100A7 = test: as above; format: cell-based, humains; settings: stimulated keratinocytes, 24 h
DEFB4A = test: as above; format: cell-based, humains; settings: stimulated keratinocytes, 24 h
[5] = ORAC (Oxygen Radical Antioxydant Capacity) antioxidant test in tubo; settings: 30 µg/ml; Trolox standard, AAPH, fluorescéine
Description: Le stress oxydatif fait partie des causes possibles de l'apparition du vitiligo. Cette expérience a pour objectif de mesurer l'activité antioxydante de chaque triterpène pentacyclique et des deux extraits, en comparaison avec un témoin positif bien connu, la vitamine C. La méthode in tubo utilisée est celle d'évaluation ORAC (Oxygen Radical Antioxydant Capacity) adaptée de celle décrite par Davalos et al. (J Agric Food Chem 52(1):48-54, 2004). L'indice ORAC permet d'évaluer la capacité anti-oxydante de chaque composé testé dans l'exemple 2. Ce test permet d'évaluer et de classer les différents composés testés suivant leur pouvoir anti-oxydant vis-à-vis des radicaux libres péroxyl. Le AAPH (2,2'-azobis-2-méthyl-propanimidamide, dihydrochloride) est à l'origine de radicaux libres péroxyl. Ce test est utilisé pour mimer la cinétique de dégradation de la fluorescéine par les radicaux libres. Ceci se traduit par une diminution de fluorescence en fonction du temps et de la concentration en actif anti-oxydant présent dans l'extrait testé. L'acide 3,4-dihydro-6-hydroxy-2,5,7,8-tétraméthyl-2H-1-benzopyran-2-carboxylique ou Trolox est utilisé comme standard, il s'agit d'un analogue hydrophile de la vitamine E (anti-oxydant connu). L'ajout de Trolox (gamme de référence) ou d'extrait ou triterpène pentacyclique, protège la fluorescéine de la dégradation. Ceci permet d'évaluer une activité antioxydante mesurée par rapport à une gamme de Trolox.
Toutes les solutions sont réalisées dans du tampon phosphate 75 mM, pH à 7,6. La fluorescéine est à 1,17 µM (solution mère […]). AAPH à 125 mM est préparé extemporanément, Trolox à 1 mM. Dans une plaque de 96 puits noir, il est déposé 20 µl d'antioxydant (gamme Trolox ou composé à tester), 160 µl de fluorescéine à 1,17 µM. la plaque est recouverte d'un film, puis est incubée pendant 15 minutes à 37°C. la solution de AAPH est ajoutée manuellement et le plus rapidement possible à raison de 20 µl par puits. La plaque est alors incubée immédiatement à 37°C dans un spectrofluorimètre (SpectraMax). Une lecture est enregistrée toutes les minutes pendant 90 minutes. La longueur d'onde d'excitation est de 485 nm et la longueur d'onde d'émission est de 520 nm. Chaque essai est réalisé en triplicata.
Les aires sous la courbe (AUC) pour chacun des essais sont calculées. Les AUC nets sont déterminées de la façon suivante : AUC net = AUC point de gamme ou échantillon−AUC blanc. [formula]
La droite d'étalonnage est établie, la concentration en Trolox (µM) en fonction de l'AUC net. L'équation de la droite est utilisée pour déterminer un équivalent en Trolox (µM) pour chacun des échantillons dosés.
Eq Trolox en µM = a x (AUC net)2 + b x (AUC net), a et b sont déterminés par l'équation de la droite.
Pour être dosés, les échantillons sont dilués, de sorte que les valeurs mesurées soient comprises dans la gamme étalon utilisée pour le dosage. L'acide ascorbique (vitamine C) est utilisé comme référence.
L'indice ORAC correspond à des […] de Trolox / 100g de matières.
Les résultats ci-dessous ont été calculés pour 100g d'extrait en Triterpènes, Tingénine A, Tingénine B et célastrol, soit le calcul : [formula]

CXCL16 = test: RT-qPCR gene expression in cytokine-stimulated keratinocytes; format: cell-based, humains; settings: stimulated keratinocytes, 24 h
CXCL11 = test: as above; format: cell-based, humains; settings: stimulated keratinocytes, 24 h
[6] = 100 ng/ml, stimulated keratinocytes, 48 h, supernatant
[7] = concentrations as in Tableau 5 (JAK 10 µM; TA, TB 500 ng/ml; Célastrol 100 ng/ml; extrait 1 200 ng/ml; extrait 2 150 ng/ml)

Structure (SMILES): CC1=C(O)C(=O)C=C2C1=CC=C1[C@@]2(C)CC[C@@]2(C)[C@@H]3C[C@](C)(C(=O)O)CC[C@]3(C)CC[C@]12C [Célastrol]
- % Stimulation / Gènes témoins, CXCL10 (CXCL10; 15 ng/ml): 72%
- % Stimulation / Gènes témoins, CXCL10 (CXCL10; 45 ng/ml): 20%
- % Stimulation / Gènes témoins, CXCL10 (CXCL10; 135 ng/ml): 10%
- % Stimulation / Gènes témoins, CCL20 (CCL20; 15 ng/ml): 86%
- % Stimulation / Gènes témoins, CCL20 (CCL20; 45 ng/ml): 35%
- % Stimulation / Gènes témoins, CCL20 (CCL20; 135 ng/ml): 11%
- % Stimulation / Gènes témoins, CCL5 (CCL5; 15 ng/ml): 79%
- % Stimulation / Gènes témoins, CCL5 (CCL5; 45 ng/ml): 12%
- % Stimulation / Gènes témoins, CCL5 (CCL5; 135 ng/ml): 3%
- % Stimulation / Gènes témoins, IL-23A (IL-23A; 15 ng/ml): 63%
- % Stimulation / Gènes témoins, IL-23A (IL-23A; 45 ng/ml): 41%
- % Stimulation / Gènes témoins, IL-23A (IL-23A; 135 ng/ml): 15%
- % Stimulation / Gènes témoins, MMP-9 (MMP-9 [1]; 15 ng/ml): 139%
- % Stimulation / Gènes témoins, MMP-9 (MMP-9 [1]; 45 ng/ml): 88%
- % Stimulation / Gènes témoins, MMP-9 (MMP-9 [1]; 135 ng/ml): 9%
- Libération de MMP-9 (pg/ml) ± sem (MMP-9 [2]; [6]): 395 ± 15 pg/mL
- effet sur la libération de MMP-9 (in words) (MMP-9 [2]; [7]): effet inhibiteur
- Libération d'IL-8 (pg/ml) ± sem (IL-8 [3]; [6]): 83 ± 7 pg/mL
- effet sur la libération d'IL-8 (in words) (IL-8 [3]; [7]): effet inhibiteur
- % Stimulation / Gènes témoins, IL-8 (IL-8 [4]; 15 ng/ml): 100%
- % Stimulation / Gènes témoins, IL-8 (IL-8 [4]; 45 ng/ml): 36%
- % Stimulation / Gènes témoins, IL-8 (IL-8 [4]; 135 ng/ml): 5%
- % Stimulation / Gènes témoins, S100A7 (S100A7; 15 ng/ml): 78%
- % Stimulation / Gènes témoins, S100A7 (S100A7; 45 ng/ml): 53%
- % Stimulation / Gènes témoins, S100A7 (S100A7; 135 ng/ml): 16%
- % Stimulation / Gènes témoins, DEFB4A (DEFB4A; 15 ng/ml): 90%
- % Stimulation / Gènes témoins, DEFB4A (DEFB4A; 45 ng/ml): 32%
- % Stimulation / Gènes témoins, DEFB4A (DEFB4A; 135 ng/ml): 3%
- Indice ORAC / 100g triterpènes (x 1000) [5]: 126 466 / 100g triterpènes (x 1000)
- % Stimulation / Gènes témoins, CXCL16 (CXCL16; 15 ng/ml): 95%
- % Stimulation / Gènes témoins, CXCL16 (CXCL16; 45 ng/ml): 51%
- % Stimulation / Gènes témoins, CXCL16 (CXCL16; 135 ng/ml): 23%
- % Stimulation / Gènes témoins, CXCL11 (CXCL11; 15 ng/ml): 59%
- % Stimulation / Gènes témoins, CXCL11 (CXCL11; 45 ng/ml): 5%
- % Stimulation / Gènes témoins, CXCL11 (CXCL11; 135 ng/ml): 1%
